Assay results from PMC4051503 (2014).

Test system: d(AAAATTTT)2 (DNA, duplex) AAAATTTT
Experiment: X-ray crystallography (2.1 Å)
Details: 8 mM MnCl2; 40 mM sodium cacodylate pH 6.5, 0.5 mM spermine, 5% MPD, 15 °C; 0.25 mM duplex, 0.75 mM CD27

- binding: yes
SMILES: c1cc(Nc2ccc(NC3=NCCN3)cc2)ccc1NC1=NCCN1
